This is an account of results in ChEMBL document CHEMBL4017480, “Discovery and optimization of selective FGFR4 inhibitors via scaffold hopping” (Bioorg Med Chem Lett, 2017).

Molecules are shown by their SMILES. ≈ marks a conversion by molar mass, not a printed value.

The target in one data set is T1, Cytochrome P450 1A2 (Homo sapiens, UniProt P05177).
T1 sequence (P05177 whole entry): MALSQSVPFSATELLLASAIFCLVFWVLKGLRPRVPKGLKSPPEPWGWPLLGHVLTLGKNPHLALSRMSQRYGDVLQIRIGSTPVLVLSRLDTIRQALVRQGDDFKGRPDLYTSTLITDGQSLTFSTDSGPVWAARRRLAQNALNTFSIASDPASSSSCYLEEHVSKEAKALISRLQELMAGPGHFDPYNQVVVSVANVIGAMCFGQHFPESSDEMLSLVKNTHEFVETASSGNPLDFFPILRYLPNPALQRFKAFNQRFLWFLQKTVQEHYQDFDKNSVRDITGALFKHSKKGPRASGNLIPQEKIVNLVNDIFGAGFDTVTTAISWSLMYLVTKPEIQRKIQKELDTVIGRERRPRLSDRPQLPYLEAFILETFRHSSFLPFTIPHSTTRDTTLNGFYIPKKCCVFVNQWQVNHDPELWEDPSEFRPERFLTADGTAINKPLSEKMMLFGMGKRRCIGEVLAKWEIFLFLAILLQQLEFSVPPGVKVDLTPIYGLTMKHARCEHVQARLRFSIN
The data set is described as follows: Inhibition of CYP1A2 in human liver microsomes using phenacetin as substrate pretreated for 10 mins followed by substrate addition measured after 10 mins in presence of NADPH by LC-MS/MS method. The class given is ADME.

In the next data set the target is Cytochrome P450 2C19 (Homo sapiens, UniProt P33261). Put plainly: Inhibition of CYP2C19 in human liver microsomes using S-mephenytoin as substrate pretreated for 10 mins followed by substrate addition measured after 10 mins in presence of NADPH by LC-MS/MS method. It is filed as ADME.
Chain of Cytochrome P450 2C19 (P33261 whole entry): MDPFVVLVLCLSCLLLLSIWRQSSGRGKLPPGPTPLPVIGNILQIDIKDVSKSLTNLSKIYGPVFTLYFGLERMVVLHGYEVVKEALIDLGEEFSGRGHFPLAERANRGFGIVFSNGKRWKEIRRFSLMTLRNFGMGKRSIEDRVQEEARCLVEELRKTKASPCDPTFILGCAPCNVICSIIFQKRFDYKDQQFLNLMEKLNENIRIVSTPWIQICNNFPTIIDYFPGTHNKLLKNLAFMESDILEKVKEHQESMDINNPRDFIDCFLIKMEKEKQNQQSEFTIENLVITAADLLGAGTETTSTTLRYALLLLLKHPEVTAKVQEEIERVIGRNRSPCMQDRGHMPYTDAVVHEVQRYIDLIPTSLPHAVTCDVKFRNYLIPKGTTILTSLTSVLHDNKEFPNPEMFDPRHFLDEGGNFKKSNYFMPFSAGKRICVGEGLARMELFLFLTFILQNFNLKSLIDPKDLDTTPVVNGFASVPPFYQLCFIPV
The target of data set [1] is T2, Macrophage colony-stimulating factor 1 receptor (Homo sapiens, UniProt P07333). The data set is described as follows: Inhibition of human FMS using poly[Glu:Tyr] (4:1) as substrate measured after 120 mins in presence of [gamma33P]ATP by P81 ion exchange chromatographic method.
T2 sequence (P07333 whole entry): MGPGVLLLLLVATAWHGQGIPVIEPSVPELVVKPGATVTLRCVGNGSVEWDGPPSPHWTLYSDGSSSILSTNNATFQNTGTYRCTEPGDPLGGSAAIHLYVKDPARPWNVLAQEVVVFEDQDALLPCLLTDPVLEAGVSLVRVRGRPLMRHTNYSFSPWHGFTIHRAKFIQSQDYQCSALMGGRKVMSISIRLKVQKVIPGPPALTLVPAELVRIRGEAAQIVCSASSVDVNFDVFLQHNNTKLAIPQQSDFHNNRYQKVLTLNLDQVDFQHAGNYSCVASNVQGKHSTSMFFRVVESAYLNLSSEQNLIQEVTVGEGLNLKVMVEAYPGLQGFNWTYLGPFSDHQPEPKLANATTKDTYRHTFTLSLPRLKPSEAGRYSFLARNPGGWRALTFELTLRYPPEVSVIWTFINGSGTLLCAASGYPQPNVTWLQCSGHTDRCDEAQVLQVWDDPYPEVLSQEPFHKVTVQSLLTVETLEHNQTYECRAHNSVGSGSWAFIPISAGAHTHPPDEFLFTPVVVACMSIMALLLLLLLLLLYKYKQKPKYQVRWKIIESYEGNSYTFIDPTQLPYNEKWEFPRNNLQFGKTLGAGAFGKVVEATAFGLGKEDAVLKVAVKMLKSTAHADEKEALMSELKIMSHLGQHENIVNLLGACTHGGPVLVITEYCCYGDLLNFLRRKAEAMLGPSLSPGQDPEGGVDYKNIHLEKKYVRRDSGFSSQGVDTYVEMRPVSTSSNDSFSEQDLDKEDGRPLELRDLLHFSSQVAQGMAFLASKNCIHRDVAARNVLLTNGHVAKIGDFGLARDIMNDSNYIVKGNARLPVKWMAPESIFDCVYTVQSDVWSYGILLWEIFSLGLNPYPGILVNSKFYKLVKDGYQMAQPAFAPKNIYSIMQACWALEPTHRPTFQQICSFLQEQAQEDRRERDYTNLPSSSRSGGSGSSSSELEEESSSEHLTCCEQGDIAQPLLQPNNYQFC
The target of data set [2] is T3, Tyrosine-protein kinase JAK3 (Homo sapiens) (UniProt P52333).
T3 sequence (whole entry): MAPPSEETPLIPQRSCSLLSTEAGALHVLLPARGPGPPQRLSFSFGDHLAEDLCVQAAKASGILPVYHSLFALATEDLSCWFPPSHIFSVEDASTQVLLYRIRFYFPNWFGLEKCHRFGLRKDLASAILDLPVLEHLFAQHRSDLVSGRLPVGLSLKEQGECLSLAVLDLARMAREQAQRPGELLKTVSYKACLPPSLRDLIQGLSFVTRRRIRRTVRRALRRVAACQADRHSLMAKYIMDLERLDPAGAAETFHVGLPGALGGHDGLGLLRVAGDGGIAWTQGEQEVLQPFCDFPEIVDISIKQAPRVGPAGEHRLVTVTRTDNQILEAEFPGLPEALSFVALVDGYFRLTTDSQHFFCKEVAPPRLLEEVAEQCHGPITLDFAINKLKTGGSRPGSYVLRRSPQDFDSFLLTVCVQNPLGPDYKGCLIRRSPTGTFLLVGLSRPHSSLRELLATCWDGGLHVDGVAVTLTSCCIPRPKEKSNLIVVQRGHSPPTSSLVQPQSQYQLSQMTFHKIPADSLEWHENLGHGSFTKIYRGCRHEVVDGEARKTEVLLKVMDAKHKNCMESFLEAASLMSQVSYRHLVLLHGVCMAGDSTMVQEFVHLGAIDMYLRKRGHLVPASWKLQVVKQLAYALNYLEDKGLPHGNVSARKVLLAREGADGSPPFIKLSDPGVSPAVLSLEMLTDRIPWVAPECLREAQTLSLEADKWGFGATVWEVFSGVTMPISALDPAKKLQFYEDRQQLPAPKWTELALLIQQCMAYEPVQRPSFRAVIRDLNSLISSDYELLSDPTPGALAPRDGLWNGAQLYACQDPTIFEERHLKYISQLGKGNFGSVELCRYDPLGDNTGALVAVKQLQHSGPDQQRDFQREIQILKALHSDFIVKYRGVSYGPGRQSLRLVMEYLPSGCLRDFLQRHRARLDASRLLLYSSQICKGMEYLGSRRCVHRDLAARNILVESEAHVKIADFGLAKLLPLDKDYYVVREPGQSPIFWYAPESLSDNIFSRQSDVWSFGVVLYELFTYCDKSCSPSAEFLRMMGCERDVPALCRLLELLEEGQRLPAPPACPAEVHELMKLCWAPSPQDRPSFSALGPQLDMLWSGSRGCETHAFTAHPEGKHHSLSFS
The data set is described as follows: Inhibition of human JAK3 at 10 uM using GEEEEYFELVKKKK as substrate measured after 120 mins in presence of [gamma33P]ATP by P81 ion exchange chromatographic method relative to control.

Data set [3] is described as follows: Apparent permeability from apical to basolateral side in MDCK2-MDR1 cells at 2 uM after 2.5 hrs LC-MS/MS analysis. The following applies: dog, MDCK-MDR1. It is filed as ADME, cell-based, Canis lupus familiaris.
For data set [4], the target named is Epidermal growth factor receptor (Homo sapiens, UniProt P00533). Put plainly: Inhibition of human EGFR using poly[Glu:Tyr] (4:1) as substrate measured after 120 mins in presence of [gamma33P]ATP by P81 ion exchange chromatographic method.
Chain of Epidermal growth factor receptor (P00533 whole entry): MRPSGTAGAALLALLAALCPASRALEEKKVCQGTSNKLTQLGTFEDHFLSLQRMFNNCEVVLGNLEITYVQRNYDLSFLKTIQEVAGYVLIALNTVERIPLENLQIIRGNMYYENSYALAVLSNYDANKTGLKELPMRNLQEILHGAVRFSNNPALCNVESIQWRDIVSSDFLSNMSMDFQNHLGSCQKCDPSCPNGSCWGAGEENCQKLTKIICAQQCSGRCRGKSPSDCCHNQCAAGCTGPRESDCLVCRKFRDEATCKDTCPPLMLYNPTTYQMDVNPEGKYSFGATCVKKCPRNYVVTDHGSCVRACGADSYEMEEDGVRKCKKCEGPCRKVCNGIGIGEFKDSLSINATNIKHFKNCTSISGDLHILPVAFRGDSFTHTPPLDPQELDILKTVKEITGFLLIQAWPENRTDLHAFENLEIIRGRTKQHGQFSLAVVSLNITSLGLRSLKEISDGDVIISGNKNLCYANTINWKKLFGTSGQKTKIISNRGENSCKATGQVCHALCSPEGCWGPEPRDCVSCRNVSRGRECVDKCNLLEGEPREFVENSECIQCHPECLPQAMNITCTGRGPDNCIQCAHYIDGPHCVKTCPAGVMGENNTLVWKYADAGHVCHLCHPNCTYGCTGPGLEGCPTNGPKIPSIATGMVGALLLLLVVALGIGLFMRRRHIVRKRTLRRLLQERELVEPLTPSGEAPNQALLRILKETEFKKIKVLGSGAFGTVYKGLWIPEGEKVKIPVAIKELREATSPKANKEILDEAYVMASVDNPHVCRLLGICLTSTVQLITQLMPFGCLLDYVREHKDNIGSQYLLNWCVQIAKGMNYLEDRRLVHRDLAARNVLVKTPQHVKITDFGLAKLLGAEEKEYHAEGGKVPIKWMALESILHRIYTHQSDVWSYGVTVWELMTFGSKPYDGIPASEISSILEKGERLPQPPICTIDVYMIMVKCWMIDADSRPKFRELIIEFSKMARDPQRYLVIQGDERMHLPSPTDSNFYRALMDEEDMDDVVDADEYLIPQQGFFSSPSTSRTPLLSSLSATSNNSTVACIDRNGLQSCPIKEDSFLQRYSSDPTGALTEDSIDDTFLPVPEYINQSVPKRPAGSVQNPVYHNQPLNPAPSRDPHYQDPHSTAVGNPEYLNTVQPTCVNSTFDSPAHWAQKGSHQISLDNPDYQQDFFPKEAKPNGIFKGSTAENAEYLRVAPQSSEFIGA
Data set [5] in a line: Intrinsic clearance in mouse liver microsomes at 1 uM measured after 60 mins in presence of NADPH by LC-MS/MS analysis. The class given is ADME, microsome. The following applies: read-out: CLH.
A short description of data set [6]: Kinetic solubility of the compound at pH 7.4. The class given is physicochemical. The following applies: buffer, read-out: Kinetic_solubility.
Another data set concerns the target Cytochrome P450 3A4 (Homo sapiens, UniProt P08684). The data set is described as follows: Inhibition of CYP3A4 in human liver microsomes using midazolam as substrate pretreated for 10 mins followed by substrate addition measured after 10 mins in presence of NADPH by LC-MS/MS method. It is filed as ADME.
In data set [7] the target is T2, Macrophage colony-stimulating factor 1 receptor. Put plainly: Inhibition of human FMS at 10 uM using poly[Glu:Tyr] (4:1) as substrate measured after 120 mins in presence of [gamma33P]ATP by P81 ion exchange chromatographic method relative to control.
The next data set has as its target Cytochrome P450 2D6 (Homo sapiens, UniProt P10635). Put plainly: Inhibition of CYP2D6 in human liver microsomes using dextromethorphan as substrate pretreated for 10 mins followed by substrate addition measured after 10 mins in presence of NADPH by LC-MS/MS method. The class given is ADME.
A short description of data set [8]: Stability in mouse plasma assessed as compound remaining at 2 uM measured after 2 hrs by LC-MS/MS analysis. It is filed as ADME, cell-free. The following applies: read-out: Stability.
Data set [9] in a line: Stability in human plasma assessed as compound remaining at 2 uM measured after 2 hrs by LC-MS/MS analysis. The class given is ADME, cell-free. Conditions: read-out: Stability.

Chain of Cytochrome P450 2D6 (P10635 whole entry): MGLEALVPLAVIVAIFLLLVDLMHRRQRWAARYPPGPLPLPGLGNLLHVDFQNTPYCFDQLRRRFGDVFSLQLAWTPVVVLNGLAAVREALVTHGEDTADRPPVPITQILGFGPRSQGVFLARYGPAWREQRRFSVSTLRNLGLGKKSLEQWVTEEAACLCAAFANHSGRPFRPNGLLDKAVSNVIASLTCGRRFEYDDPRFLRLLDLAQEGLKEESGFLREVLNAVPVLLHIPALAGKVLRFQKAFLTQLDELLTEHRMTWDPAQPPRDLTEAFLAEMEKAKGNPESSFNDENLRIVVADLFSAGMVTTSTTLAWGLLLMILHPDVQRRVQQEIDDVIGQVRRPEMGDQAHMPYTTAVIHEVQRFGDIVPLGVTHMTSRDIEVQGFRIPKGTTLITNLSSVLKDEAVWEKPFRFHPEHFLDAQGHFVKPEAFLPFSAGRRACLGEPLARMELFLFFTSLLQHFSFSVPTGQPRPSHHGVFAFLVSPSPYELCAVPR
Chain of Cytochrome P450 3A4 (P08684 whole entry): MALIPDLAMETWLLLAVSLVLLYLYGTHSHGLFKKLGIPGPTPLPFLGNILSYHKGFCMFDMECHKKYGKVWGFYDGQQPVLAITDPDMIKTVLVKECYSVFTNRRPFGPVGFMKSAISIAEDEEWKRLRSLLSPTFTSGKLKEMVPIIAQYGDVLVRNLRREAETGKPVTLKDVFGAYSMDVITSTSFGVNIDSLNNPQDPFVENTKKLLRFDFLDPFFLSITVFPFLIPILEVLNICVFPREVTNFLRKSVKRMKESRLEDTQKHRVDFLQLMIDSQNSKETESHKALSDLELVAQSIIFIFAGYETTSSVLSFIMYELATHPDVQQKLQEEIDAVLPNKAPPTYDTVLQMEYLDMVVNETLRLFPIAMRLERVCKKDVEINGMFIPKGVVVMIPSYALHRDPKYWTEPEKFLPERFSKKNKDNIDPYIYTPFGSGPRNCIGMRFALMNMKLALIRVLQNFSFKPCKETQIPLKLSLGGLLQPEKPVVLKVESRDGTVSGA

On to `C=CC(=O)Nc1cccc(C)c1Nc1ncc2cc(-c3c(Cl)c(OC)cc(OC)c3Cl)ccc2n1`, for which the IC50 is 15.9 µM on Cytochrome P450 1A2; 1.7 µM at Cytochrome P450 2C19; 1.1 µM in [1]; greater than 10 µM in data set [4]; 3 µM at Cytochrome P450 3A4; 12.5 µM on Cytochrome P450 2D6. Also, the inhibition in [2] was 12%; in [7], 78%. In addition, the apical-to-basolateral permeability (Papp A→B) at 2.5 h, 2 µM in [3] is 0.35 ×10⁻⁶ cm/s. Also, the CLint scaled at 1 µM in data set [5] was 97 mL/min/kg. For the same molecule, the solubility kinetic in data set [6] was less than 0.5 µg/mL. Moreover, the remaining at 2 h, 2 µM was 63% in data set [8] and 71% in [9].
Take `C=CC(=O)N[C@H]1COC[C@H]1Nc1ncc(OCc2c(F)c(OC)cc(OC)c2F)cn1`: the IC50 on Cytochrome P450 1A2 is greater than 50 µM; on Cytochrome P450 2C19, 19.8 µM; in data set [1], greater than 10 µM; in data set [4], greater than 10 µM; on Cytochrome P450 3A4 it was 13.3 µM; at Cytochrome P450 2D6 it was greater than 50 µM. In addition, the values for the inhibition in data set [2] and in [7] were 9% and 6%, respectively. Moreover, the Papp A→B at 2.5 h, 2 µM in [3] stood at 7.3 ×10⁻⁶ cm/s. Besides, the CLint scaled at 1 µM in data set [5] worked out at 474 mL/min/kg. For the same molecule, in [6], the solubility kinetic came out at 78 µg/mL (≈ 179 µM). Also, the results for the remaining at 2 h, 2 µM in data set [8] and in [9] were 97% and 92%, respectively.
Take `C=CC(=O)Nc1cccc(C)c1Nc1ncc(OCc2c(F)c(OC)cc(OC)c2F)cn1`: the 50% inhibitory concentration (IC50) on Cytochrome P450 1A2 is greater than 50 µM; on Cytochrome P450 2C19 it was 1.5 µM; in data set [1], greater than 10 µM; in data set [4], greater than 10 µM; at Cytochrome P450 3A4 it was 6.9 µM; on Cytochrome P450 2D6, 35 µM. The inhibition in data set [2] came out at 7%; in data set [7], 4%. The Papp A→B at 2.5 h, 2 µM in data set [3] came to 8.6 ×10⁻⁶ cm/s. For the same molecule, in [5], the CLint scaled at 1 µM is 9640 mL/min/kg. Besides, the solubility kinetic in [6] was 39 µg/mL (≈ 85.4 µM). For the same molecule, the values for the remaining at 2 h, 2 µM in data set [8] and in data set [9] were 13% and 48%, respectively.
